Test results from patent publication US6482921B1, “Uridyl peptide antibiotic (UPA) derivatives, their synthesis and use” (Essential Therapeutics, Inc., priority 1999, dated 2002).
In brackets after ≈: the same amount, converted by molar mass.

Experiments:
[1] = tested on: Mycobacterium tuberculosis TN565; assay type: cell-based
[2] = tested on: Mycobacterium tuberculosis TN1618; assay type: cell-based

SMILES	MIC TN565 (RESISTANT) [1]	MIC TN1618 (RESISTANT) [2]
CC(C)C[C@H](NC(=O)N[C@@H](Cc1c[nH]c2ccccc12)C(=O)O)C(=O)N[C@H](C(=O)NC[C@H]1C[C@@H](O)[C@H](n2ccc(=O)[nH]c2=O)O1)[C@H](C)N(C)C(=O)CN [Compound 109]	10 µg/mL (≈ 13.5 µM)	10 µg/mL (≈ 13.5 µM)
CSCCC(NC(=O)NC(Cc1ccc(O)cc1)C(=O)O)C(=O)NC(C(=O)NCC1CC(O)C(n2ccc(=O)[nH]c2=O)O1)C(C)N(C)C(=O)C(C)N [Compound 115, 1-[5′[(2S,3S)-N^3-L-Alanyl-N^2-[N-[[(1S)-1-carboxy-4-hydroxyphenethyl)-carbamoyl]-L-methionyl]-N^3-methyl-2,3-diaminobutyramido]-3′,5′-dideoxy-α-L-arabinofuranosyl]uracil]	>30 µg/mL	30 µg/mL (≈ 40 µM)
CC(N)C(=O)N(C)C(C)C(NC(=O)C(Cc1ccccc1)NC(=O)NC(Cc1ccc2ccccc2c1)C(=O)O)C(=O)NCC1CC(O)C(n2ccc(=O)[nH]c2=O)O1 [Compound 133, 1-[5′-[(2S,3S)-N^3-L-Alanyl-N^2-[N-[[(1S)-1-carboxy-2-naphthalenethyl]carbamoyl]-L-phenylalanyl]-N^3-methyl-2,3-diaminobutyramido]-3′,5′-dideoxy-α-L-arabinofuranosyl]uracil]	30 µg/mL (≈ 37.5 µM)	10 µg/mL (≈ 12.5 µM)
CC(N)C(=O)N(C)C(C)C(NC(=O)C(Cc1ccc(C(F)(F)F)cc1)NC(=O)NC(Cc1c[nH]c2ccccc12)C(=O)O)C(=O)NCC1CC(O)C(n2ccc(=O)[nH]c2=O)O1 [Compound 146, 1-[5′-[(2S,3S)-N^3-L-Alanyl-N^2-[N-[[(1S)-1-carboxy-2-indol-3-ylethyl]carbamoyl]-L-4-(trifluoromethyl)phenylalanyl]-N^3-methyl-2,3-diaminobutyramido]-3′,5′-dideoxy-α-L-arabinofuranosyl]uracil]	10 µg/mL (≈ 11.7 µM)	10 µg/mL (≈ 11.7 µM)
CC(N)C(=O)N(C)C(C)C(NC(=O)C(Cc1ccc(-c2ccccc2)cc1)NC(=O)NC(Cc1c[nH]c2ccccc12)C(=O)O)C(=O)NCC1CC(O)C(n2ccc(=O)[nH]c2=O)O1 [Compound 155, 1-[5′-[(2S,3S)-N^3-L-Alanyl-N^2-[N-[[(1S)-1-carboxy-2-indol-3-ylethyl)carbamoyl]-L-4-biphenylalanyl]-N^3-methyl-2,3-diaminobutyramidol-3′,5′-dideoxy-α-L-arabinofuranosyl]uracil]	10 µg/mL (≈ 11.5 µM)	10 µg/mL (≈ 11.5 µM)
CC(N)C(=O)N(C)C(C)C(NC(=O)C(Cc1ccc(F)cc1)NC(=O)NC(Cc1ccc(O)cc1)C(=O)O)C(=O)NCC1CC(O)C(n2ccc(=O)[nH]c2=O)O1 [Compound 157, 1-[5′-[(2S,3S)-N^3-L-Alanyl-N^2-[N-[[(1S)-1-carboxy-4-hydroxyphenethyl]carbamoyl]-L-4-fluorophenylalanyl]-N^3-methyl-2,3-diaminobutyramido]-3′,5′-dideoxy-α-L-arabinofuranosyl]uracil]	10 µg/mL (≈ 12.7 µM)	10 µg/mL (≈ 12.7 µM)
CC(N)C(=O)N(C)C(C)C(NC(=O)C(Cc1ccc(F)cc1)NC(=O)NC(Cc1c[nH]c2ccccc12)C(=O)O)C(=O)NCC1CC(O)C(n2ccc(=O)[nH]c2=O)O1 [Compound 158, 1-[5′-[(2S,3S)-N^3-L-Alanyl-N^2-[N-[[(1S)-1-carboxy-2-indol-3-ylethyl]carbamoyl]-L-4-fluorophenylalanyl]-N^3-methyl-2,3-diaminobutyramidol-3′,5′-dideoxy-α-L-arabinofuranosyl]uracil]	10 µg/mL (≈ 12.4 µM)	10 µg/mL (≈ 12.4 µM)
CC(C)CC(N)C(=O)N(C)C(C)C(NC(=O)C(Cc1ccccc1)NC(=O)NC(Cc1c[nH]c2ccccc12)C(=O)O)C(=O)NCC1CC(O)C(n2ccc(=O)[nH]c2=O)O1 [Compound 159, 1-[5′-[(2S,3S)-N^2-[N-[[(1S)-1-Carboxy-2-indol-3-ylethyl]carbamoyl]-L-phenylalanyl]l-N^3-L-leucyl-N^3-methyl-2,3-diaminobutyramido]-3′,5′-dideoxy-α-L-arabinofuranosyl]uracil]	30 µg/mL (≈ 36.1 µM)	10 µg/mL (≈ 12 µM)
CC(N)C(=O)N(C)C(C)C(NC(=O)C(Cc1ccccc1)NC(=O)NC(Cc1c[nH]c2ccccc12)C(=O)O)C(=O)NCC1CC(O)C(n2ccc(=O)[nH]c2=O)O1 [Compound 164, 1-[5′-[(2S,3S)-N^3-L-Alanyl-N^2-[N-[[(1S)-1-carboxy-2-indol-3-ylethyl]carbamoyl]-L-phenylalanyl]-N^3-methyl-2,3-diaminobutyramido]-3′,5′-dideoxy-α-L-arabinofuranosyl]uracil]	10 µg/mL (≈ 12.7 µM)	10 µg/mL (≈ 12.7 µM)
C[C@H](NC(=O)N[C@@H](Cc1c[nH]c2ccccc12)C(=O)O)C(=O)N[C@H](C(=O)N/C=C1/C[C@@H](O)[C@H](n2ccc(=O)[nH]c2=O)O1)[C@H](C)N(C)C(=O)[C@@H](N)Cc1cccc(O)c1 [Pacidamycin 4, reference compound]	>30 µg/mL	>30 µg/mL
